Reference: US10351621B2, “Anti-histone therapy in acute kidney injury” (Immunomedics, Inc., priority 2014, dated 2019)
Entries after “also recorded” stand apart in the source; their conditions may differ.

Assays:
[1] = test system: IRI-induced kidney damage; settings: chemical inhibitors of necroptosis, ferroptosis, MPT-RN; cited from earlier work
[2] = test system: bilateral IRI kidney mice; test: Bilateral IRI kidney model mice (post-ischemic AKI); assay type: in vivo; settings: ischemia 35 min, reperfusion 24 h
Protocol: C57BL/6N male mice were procured from Charles River Laboratories (Sulzfeld, Germany). 6-8 week-old mice (N=5-14) were anesthetized before renal pedicle clamping (unilateral: 15, 25, 35, or 45 min) with a microaneurysm clamp via flank incisions (Medicon, Tuttlingen, Germany). Body temperature was maintained at between 37° C. and 38° C. throughout the procedure by placing the mice on a heating pad. After clamp removal, recovery of blood flow to the kidney was confirmed as evidenced by returning to its original color, before closing the wound. To maintain fluid balance, all mice were supplemented with 0.5 ml of 0.9% NaCl administered peritoneally. Mice were killed after 0 min, 15 min, 30 min, 6 h, 12 h, 15 h, 24 h, 2 d, 3 d, 7 d and 10 days after surgery. Bilateral IRI mice (ischemia 35 min, reperfusion 24 h) were treated with PAD inhibitor (20 mg/kg, intraperitoneal injection; i.p: CALBIOCHEM®), anti-histone IgGs (20 mg/kg, i.p; clone BWA3; IMMUNOMEDICS®, Morris Plains, N.J.), necrosis inhibitor combination (Necrostatinl/Enzo 1.65 mg/kg i.p, Ferrostatin/CALBIOCHEM®, 2 mg/kg i.p, Ciclosporin/Novartis 10 mg/kg, i.v) 2 hours before IRI surgery. Neutrophil depletion was performed as described previously (Huang et al., 2015, Hepatology 62:600-14) with an i.p. injection of 500 μg anti-Ly6G IgGs (1A8) (BIOXCELL®) or control IgGs 24 and 2 hours before IRI surgery.
For immunofluorescence, the tissues after sacrifice were fixed with 4% paraformaldehyde for 2 hours, dehydrated with 30% sucrose for 24 hours at 4° C., frozen in OCT (TISSUE-TEK®, OCT compounds, SAKURA®) and cryosectioned (5 μm thick). The CitH3 positive NETs and TUNEL positive necrotic cells were quantified using ImageJ software.
For immunostaining, rat anti-mouse Ly6b (neutrophils) ab (AbD Serotec, Oxford, United Kingdom), rabbit citrullinated histone 3 ab (Abcam, Cambridge, United Kingdom), or goat anti neutrophil elastase ab (Santa Cruz Biotechnology, USA) were used. To count the positive cells, 3 high-power fields (100×) were analyzed. BUN and creatinine were measured using urea or creatinine FS kits (DiaSys Diagnostic Systems, Holzheim, Germany) according to the manufacturer's protocols. Mice plasma was analysed for IL-6 and TNF cytokine secretion by ELISA (BD Pharmingen, San Diego, Calif.). Plasma histone was analyzed by western blotting. To prepare a control model with high concentration of histone, lipopolysaccharide (LPS, 20 mg/kg, i.p) was injected into WT mice (8 weeks age, male), and blood samples were taken 6 hours after LPS injection (Li et al., 2011, Surgery 150:442-51). Bronchoalveolar lavage fluid (BAL) in IRI mice was performed as previously described (Sayah et al., 2015, Am J Respir Crit Care Med 191:455-63). The BAL cell number and supernatant NETs were evaluated by cell counter and NE-DNA complexes ELISA, respectively.
(§1) In human neutrophil experiments, NETs were quantified by the MPO-DNA sandwich ELISA method using anti-DNA abs (Roche, Mannheim, Germany) and anti-human MPO abs (AbD Serotec) as described (Nakazawa, 2014, J Am Soc Nephrol 25:990-7). In mouse neutrophils experiments, BAL NETs (undiluted) and plasma NETs (×2 diluted in PBS) were evaluated by NE-DNA complex using anti-DNA abs and anti-mouse NE abs (Santa Cruz) as described (Sayah et al., 2015, Am J Respir Crit Care Med 191:455-63). The CitH3 positive NETs were quantified using ImageJ software.

human neutrophils = test: In vitro NET formation in neutrophils stimulated by PMA or necrotic TCs media; assay type: cell-based; settings: PAD inhibitor 200 μM; PMA 25 nM or necrotic TCs media
Protocol: Neutrophils were isolated from human healthy volunteers using standard dextran sedimentation followed by Ficoll-Hypaque density centrifugation procedures (Brinkmann et al., 2004, Science 303:1532-1535). Blood donors provided written informed consent forms approved by the local ethical committee. Neutrophils were suspended in RPMI medium (2×10^5˜2×10^6 cell/ml) and seeded into 8-well microns slides or 12˜96-well plates (Ibidi, Martinsried, Germany) in a 5% carbon dioxide atmosphere at 37° C. for 30 minute before stimulation. The neutrophils were placed in normal or hypoxia condition (1% oxygen) for 3, 6, or 24 hours, or stimulated by Phorbol 12-myristate 13-acetate (PMA, 25 nM, Sigma-Aldrich), total calf thymus histones (10, 50, or 100 μg/ml), and necrotic conditioned media from TCs (control, hypoxia, H2O2 stimulation) for 3-4 hours. […]
as §1

HK-2 cells = test: NETs cytotoxicity to TCs (conditioned NETs media, LDH assay); assay type: cell-based, human; settings: 20 h after addition; neutrophils pre-treated with PAD inhibitor 200 μM
Protocol: Neutrophils were stimulated by PMA, histones, or necrotic TCs derived conditioned media and 3 hours after incubation the supernatant was replaced with fresh media (RPMI), and the bottom NETs were collected to avoid the contamination of the media with exogenous PMA or necrotic TCs or histones as previously described (Najmeh et al., 2015, J Vis Exp 16:98). After centrifugation (1200 rpm, 5 min), the supernatants were applied to TCs (1:1). At 20 hours after addition of conditioned NETs media, TCs injury was evaluated by LDH assay. To investigate whether the formed NETs affect fresh neutrophils, conditioned NETs media was applied to fresh neutrophils and 4 h after incubation, additional NET formation in fresh neutrophils was evaluated by immunostaining.
A cell death detection (TUNEL) kit (Roche) was used to quantify dead cells in accordance with the manufacturer's instructions. Systemic dead cell derived DNAs in plasma were quantified by PICOGREEN® dsDNA assay kit (Thermo Fisher Scientific). In vitro, cytotoxicity was evaluated by LDH assay (Roche).

DDD of PKA = DDD of PKA (Homo sapiens, UniProt P13861); settings: cited from earlier work
[3] = in vivo; cited from earlier work
[4] = test system: RII and RI isoforms of PKA; settings: Gold et al. 2006; cited from earlier work
[5] = test system: glomerular endothelial cells, podocytes, and parietal epithelial cells; test: Histone killing of glomerular cells (summary); assay type: cell-based, mouse; settings: histones from calf thymus or released by neutrophils undergoing NETosis
Protocol: Mouse glomerular endothelial cells (GEnC (46)), podocytes (47)), and parietal epithelial cells (PECs, (48)) were cultured in 96 well plates with RPMI media without FCS and PS and allowed to adhere overnight. The cells were stimulated with the different concentrations of total calf thymus histones (10, 20, 30, 40, 50 and 100 μg/ml) with or without histone antibody for another 18-20 h. Cytotoxicity assay was performed using Promega CELLTITER 96® non-radioactive cell proliferation assay (MTT Assay Kit, Mannheim, Germany). Glomerular cells were also incubated with histones with or without anti-histone IgG, heparin and/or aPC. LDH assay using cytotoxicity detection kit (Roche Diagnostics, Mannheim, Germany) was used to assess cell death.

glomeruli = test: Histone toxicity on glomeruli ex vivo; assay type: cell-based, mice
Text: Whether glomerular toxicity of extracellular histones is TLR2/4-dependent is not clear. To answer this question we exposed glomeruli isolated from wild type and Tlr2/4-deficient mice to histones ex vivo. […] We also studied the effects of extracellular histones on glomeruli in vivo. Because intravenous histone injection kills mice immediately by pulmonary microvascular injury (Xu et al., 2009, Nat Med 15:1318), we injected histones directly into the left renal artery in anaesthetized mice. Unilateral histone injection caused glomerular lesions within 24 hours ranging from minor endothelial fibrinogen positivity to thrombotic microangiopathy and global glomerular necrosis (not shown). The contralateral kidney remained unaffected (not shown).

PECs = test: Histone-induced activation of parietal epithelial cells; assay type: cell-based, mouse
Text: Mitogenic plasma proteins leaking from injured glomerular capillaries cause PEC hyperplasia and glomerular crescent formation (Ryu et al., 2012, J Pathol 228:482; Smeets et al., 2009, J Am Soc Nephrol 20:2593; Smeets et al., 2009, J Am Soc Nephrol 20:2604).
Previous reports documented that heparin and recombinant activated protein C (aPC) also block histone toxicity (Xu et al., 2009, Nat Med 15:1318; Wildhagen et al., 2013, Blood 123:1098). […] Thus, extracellular histones activate PECs in a TLR2/4-dependent manner, a process that may act synergistically with other triggers of PEC hyperplasia during crescent formation and that can be blocked by anti-histone IgG, aPC or heparin.

[6] = test system: GBM antiserum-induced glomerulonephritis in mice; test: Anti-GBM nephritis model, delayed onset of treatment (established disease); assay type: in vivo
Protocol: C57BL/6 mice were procured from Charles River (Sulzfeld, Germany). 6-8 week old mice received an intravenous injection of 100 μl of anti-GBM serum (sheep anti-rat glomeruli basement membrane serum procured from Probetex INC, PTX-001). Urine samples were collected at different time points after antiserum injection to evaluate the functional parameters of kidney damage. On day 7 the mice were sacrificed by cervical dislocation to collect plasma and kidney tissue. Kidneys were kept at −80° C. for protein isolation and in RNALATER® solution at −20° C. for RNA isolation. A part of the kidney was also kept in formalin to be embedded in paraffin for histological analysis (Teixeira et al., 2005, Kidney Int 67:514B). We treated groups of mice either with 20 mg/kg, i.p. control IgG or anti-histone antibody (clone BWA-3) to neutralize the effects of extracellular histones.
Renal sections of 2 μm were stained with periodic acid-Schiff reagent. Glomerular abnormalities were scored in 50 glomeruli per section by a blinded observer. The following criteria were assessed in each of the 50 glomeruli and scored as segmental or global lesions if less or more than 50% of the glomerular tuft were affected by focal necrosis and capsule adhesions. Cellular crescents were assessed separately when more than a single layer of PECs were present around the inner circumference of Bowman' s capsule. Immunostaining was performed as described using the following primary antibodies: for WT-1/nephrin, neutrophils (Serotec, Oxford, UK), Mac-2 (Cedarlane, Ontario, Canada), TNF-α (Abcam, Cambridge, UK) and fibrinogen (Abcam, Cambridge, UK). Stained glomerular cells were quantified in 50 glomeruli per section.
We mext examined whether histone neutralization could be therapeutic in established disease. […] In another series of experiments we initiated anti-histone IgG, heparin, and aPC treatments 24 hours after GBM antiserum injection, a time point where massive proteinuria and elevated BUN were already established (not shown). […]

Sequence of DDD of PKA (P13861 2-45 limits assumed): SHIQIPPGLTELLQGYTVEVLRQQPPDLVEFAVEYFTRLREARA

Molecule: CN1C(=O)C(Cc2c[nH]c3ccccc23)NC1=S (stereo not shown) [necrostatin 1]
- kidney injury [1]: did not completely prevent

Molecule: CC[C@H]1C[C@H](C)[C@@]2(NC1=O)O[C@@H](C[C@H](O)[C@@H](C)CC/C=C/C=C(\C)[C@@H]1C/C=C/C=C/[C@H](O)[C@H](C)[C@@H](O)[C@@H](CCC(C)=O)C(=O)N[C@@H](C(C)C)C(=O)N[C@@H](Cc3cccc(O)c3)C(=O)N3CCC[C@H](N3)C(=O)O1)[C@H](C)[C@H](O)[C@@H]2C [sanglifehrin A]
- kidney injury [1]: did not completely prevent

Molecule: CCOC(=O)c1ccc(NC2CCCCC2)c(N)c1 [ferrostatin 1]
- kidney injury [1]: did not completely prevent

Molecule: NC(=O)[C@H](CCCN=C(N)CCl)NC(=O)c1ccccc1 [PAD inhibitor, Cl-amidine]
- NET components in plasma [2]: substantially reduced
- expression of AKI marker genes [2]: significantly reduced
- renal function (plasma creatinine, plasma urea) [2]: significantly reduced
- tissue necrotic area / tubular necrosis ([2]; PAS and TUNEL staining): significantly reduced
- protective effect on IRI kidney (overall) ([2]; listed as NET inhibitor): ameliorates
- protective effect on IRI kidney (overall) ([2]; listed as inhibitor of NET formation): protected
- abundance of NETs in the post-ischemic kidney ([2]; treated before surgery): substantially reduced
- induced NET formation in neutrophils (MPO-DNA complex of supernatants) (human neutrophils): abrogated
- tubular cell injury by conditioned NETs media (LDH assay) (HK-2 cells): abrogated; also recorded: reduced the damage of TCs

Molecule: RII selective AD sequence, SEQ ID NO:21 QIEYLAKQIVDNAIQQA [AKAP-IS]
- Kd (DDD of PKA; Alto et al. 2003, read-out: binding constant for DDD): 0.4 nM
- affinity for the MI DDD sequence (DDD of PKA; Hundsrucker et al. 2006): particularly high affinities

Molecule: veltuzumab: humanized IgG1 antibody against CD20
- immunogenicity in subjects compared with rituximab [3]: less immunogenic

Molecule: SuperAKAP-IS: SEQ ID NO:30 QIEYVAKQIVDYAIHQA
- selectivity for the RII isoform of PKA compared with the RI isoform [4]: five order of magnitude higher

Molecule: heparin
- killing of glomerular cells by histones / extracellular histone toxicity in vitro [5]: prevented
- histone toxicity on glomeruli ex vivo (glomeruli): completely blocked
- PEC activation by histones (PECs): protective effect
- renal dysfunction and structural injury during severe GN ([6]; delayed onset of histone blockade): protects
- severe glomerulonephritis in mice with established disease ([6]; mouse, in vivo): abrogated
- all aspects of GBM antiserum-induced severe GN ([6]; pre-emptive as well as delayed onset of histone neutralization): abrogates
